Assays:
SHV-5 = biological target: T1, SHV-5 (Klebsiella pneumoniae, UniProt P0A3M1); experiment: β-lactamase enzyme inhibition assay, SHV-5 (cefotaxime substrate); format: biochemical
T1 construct: made in house; host or cells: E. coli BL21(DE3)
Method in brief: (§1)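 Native untagged β-lactamases were expressed in E. coli BL21(DE3), then purified by cation exchange and gel filtration. Enzyme was preincubated with inhibitor for 15 min at 37 °C before substrate was added. Imipenem (A300) served KPC-2 and cefotaxime (A260) served SHV-5. IC50 was taken from initial hydrolysis rates relative to no-inhibitor controls.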

KPC-2 = biological target: T2, KPC-2 (Klebsiella pneumoniae, UniProt Q9F663); experiment: β-lactamase enzyme inhibition assay, KPC-2 (imipenem substrate); format: biochemical; conditions: Class A; imipenem substrate, 300 nm; read-out: KPC-2
T2 construct: made in house; host or cells: E. coli BL21(DE3)
T2 sequence (Q9F663 25-293, looked up): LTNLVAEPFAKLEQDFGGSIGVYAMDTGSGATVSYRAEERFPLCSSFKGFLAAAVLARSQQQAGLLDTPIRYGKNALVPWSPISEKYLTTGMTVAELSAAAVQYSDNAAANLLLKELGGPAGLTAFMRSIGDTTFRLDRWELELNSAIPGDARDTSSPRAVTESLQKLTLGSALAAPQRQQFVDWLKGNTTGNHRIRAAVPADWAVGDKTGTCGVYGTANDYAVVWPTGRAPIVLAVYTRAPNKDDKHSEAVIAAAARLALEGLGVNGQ
Method in brief: as §1

VIM-2 = biological target: T3, VIM-2 (Escherichia coli, UniProt Q5U7L7); experiment: β-lactamase enzyme inhibition assay, VIM-2 (nitrocefin substrate); format: biochemical; conditions: Class B; nitrocefin substrate, 486 nm; read-out: VIM-2
T3 construct: made in house; host or cells: E. coli BL21(DE3)
Method in brief: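 Purified VIM-2 preincubated with inhibitor for 15 min at 37° C, then nitrocefin (100 μM final) added and absorbance at 486 nm followed for 10 min. Maximum hydrolysis rates compared with inhibitor-free controls; IC50 fitted from percent inhibition across inhibitor concentrations.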

AmpC = biological target: T4, AmpC (Enterobacter cloacae, UniProt P05364); experiment: β-lactamase enzyme inhibition assay, p99 AmpC (nitrocefin substrate); format: biochemical
T4 construct: made in house; host or cells: E. coli BL21(DE3)
T4 sequence (P05364 21-381): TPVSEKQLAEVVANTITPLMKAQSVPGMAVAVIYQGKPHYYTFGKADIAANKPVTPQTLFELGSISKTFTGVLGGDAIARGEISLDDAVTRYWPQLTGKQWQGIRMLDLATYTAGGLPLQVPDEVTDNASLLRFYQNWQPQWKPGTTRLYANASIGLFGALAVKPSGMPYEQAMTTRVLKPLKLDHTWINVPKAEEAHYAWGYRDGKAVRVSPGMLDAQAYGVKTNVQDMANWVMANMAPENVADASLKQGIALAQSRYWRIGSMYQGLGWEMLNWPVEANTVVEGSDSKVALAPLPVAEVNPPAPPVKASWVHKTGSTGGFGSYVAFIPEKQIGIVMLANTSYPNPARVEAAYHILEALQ
Method in brief: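 Native untagged β-lactamases were expressed in E. coli BL21(DE3), then purified by cation exchange and gel filtration. Enzyme was preincubated with inhibitor for 15 min at 37 °C before substrate was added. IC50 was taken from initial hydrolysis rates relative to no-inhibitor controls.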

OXA-48 = OXA-48 (UniProt Q6XEC0); experiment: β-lactamase enzyme inhibition assay, Class D oxacillinase; format: biochemical; conditions: read-out: OXA-48
[1] = system: E. coli expressing the Class A Extended Spectrum Beta-Lactamase (ESBL) CTX-M-15; experiment: Broth microdilution MIC assay with ceftazidime, E. coli CTX-M-15; format: cell-based; conditions: Fixed CAZ (ceftazidime) 4 μg/mL; E. coli ESBL4 CTX-M-15
Method in brief: (§2)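 Test compounds in 2-fold dilutions (16 to 0.125 μg/mL final) in CAMHB were combined with a β-lactam at a static 4 μg/ml final. Plates were inoculated per CLSI broth microdilution with the β-lactamase-producing strain (pre-grown 3-5 h) and incubated 16-20 h at 37° C. MIC of test compound was read visually.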

[2] = system: E. cloacae expressing the Class C P99; experiment: Broth microdilution MIC assay with ceftazidime, E. cloacae P99; format: cell-based; conditions: Fixed CAZ (ceftazidime) 4 μg/mL; E. cl. 144200 p99 AmpC
Method in brief: as §2

[3] = system: K. pneumoniae expressing the Class A carbapenemase KPC-2; experiment: Broth microdilution MIC assay with meropenem, K. pneumoniae KPC-2; format: cell-based; conditions: Fixed Mero (meropenem) 4 μg/mL; K. p. 156319 KPC-3
Method in brief: as §2

[4] = system: P. aeruginosa expressing the Class B carbapenemase VIM-2; experiment: Broth microdilution MIC assay with meropenem, P. aeruginosa VIM-2; format: cell-based; conditions: Fixed Mero (meropenem) 4 μg/mL; P. aerug. 2775 VIM-2
Method in brief: as §2

[5] = system: K. pneumoniae expressing the class A carbapenemase KPC-2 and the class B carbapenemase VIM-4; experiment: Broth microdilution MIC assay with meropenem, K. pneumoniae KPC-2 and VIM-4; format: cell-based; conditions: Fixed Mero (meropenem) 4 μg/mL; K. p. A-1797 KPC-2 VIM-4
Method in brief: as §2

[6] = system: K. pneumoniae producing the Class D carbapenemase OXA-48; experiment: Broth microdilution MIC assay with meropenem, K. pneumoniae OXA-48; format: cell-based; conditions: Fixed Mero (meropenem) 4 μg/mL; K. p. 11978 OXA-48
Method in brief: as §2

T1 sequence (P0A3M1 22-286): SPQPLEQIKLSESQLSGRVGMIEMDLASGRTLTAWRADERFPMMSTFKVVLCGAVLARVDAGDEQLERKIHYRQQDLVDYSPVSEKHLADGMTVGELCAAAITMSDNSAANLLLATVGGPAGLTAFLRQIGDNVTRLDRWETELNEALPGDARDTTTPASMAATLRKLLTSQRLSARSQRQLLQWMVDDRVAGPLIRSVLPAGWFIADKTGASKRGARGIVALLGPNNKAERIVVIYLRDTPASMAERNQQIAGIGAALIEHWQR

SMILES	IC50 (SHV-5)	IC50 (KPC-2)	IC50 (VIM-2)	IC50 (AmpC)	IC50 (OXA-48)	MIC (μg/mL) of Exemplary Compounds in presence of fixed β-lactams: E. coli ESBL4 CTX-M-15 [1]	MIC (μg/mL) of Exemplary Compounds in presence of fixed β-lactams: E. cl. 144200 p99 AmpC [2]	MIC (μg/mL) of Exemplary Compounds in presence of fixed β-lactams: K. p. 156319 KPC-3 [3]	MIC (μg/mL) of Exemplary Compounds in presence of fixed β-lactams: P. aerug. 2775 VIM-2 [4]	MIC (μg/mL) of Exemplary Compounds in presence of fixed β-lactams: K. p. A-1797 KPC-2 VIM-4 [5]	MIC (μg/mL) of Exemplary Compounds in presence of fixed β-lactams: K. p. 11978 OXA-48 [6]
NCc1cnnn1CC(=O)N[C@H]1Cc2cccc(C(=O)O)c2OB1O [Example 13, (R)-3-(2-(5-(aminomethyl)-1H-1,2,3-triazol-1-yl)acetamido)-2-hydroxy-3,4-dihydro-2H-benzo[e][1,2]oxaborinine-8-carboxylic acid]	100 to 1000 nM	< 100 nM	100 to 1000 nM	< 100 nM	100 to 1000 nM	B (B represents an MIC between 1 and 16 μg/mL inclusive)	C (C represents an MIC of <1 μg/mL)	B (B represents an MIC between 1 and 16 μg/mL inclusive)	B (B represents an MIC between 1 and 16 μg/mL inclusive)	B (B represents an MIC between 1 and 16 μg/mL inclusive)	B (B represents an MIC between 1 and 16 μg/mL inclusive)
NCCn1cnnc1CC(=O)N[C@H]1Cc2cccc(C(=O)O)c2OB1O [Example 117, (R)-3-(2-(4-(2-aminoethyl)-4H-1,2,4-triazol-3-yl)acetamido)-2-hydroxy-3,4-dihydro-2H-benzo[e][1,2]oxaborinine-8-carboxylic acid]	< 100 nM	100 to 1000 nM	100 to 1000 nM	< 100 nM	100 to 1000 nM	C (C represents an MIC of <1 μg/mL)	C (C represents an MIC of <1 μg/mL)	C (C represents an MIC of <1 μg/mL)	C (C represents an MIC of <1 μg/mL)	B (B represents an MIC between 1 and 16 μg/mL inclusive)	B (B represents an MIC between 1 and 16 μg/mL inclusive)
O=C(Cn1nnc(CC(=O)N[C@H]2Cc3cccc(C(=O)O)c3OB2O)n1)N[C@H]1CCNC1 [Example 44]	< 100 nM	< 100 nM	< 100 nM	< 100 nM	100 to 1000 nM	C (C represents an MIC of <1 μg/mL)	C (C represents an MIC of <1 μg/mL)	B (B represents an MIC between 1 and 16 μg/mL inclusive)	C (C represents an MIC of <1 μg/mL)	B (B represents an MIC between 1 and 16 μg/mL inclusive)	B (B represents an MIC between 1 and 16 μg/mL inclusive)
NCCn1cc(Cn2nnc(CC(=O)N[C@H]3Cc4cccc(C(=O)O)c4OB3O)n2)nn1 [Example 124, (R)-3-(2-(2-((1-(2-aminoethyl)-1H-1,2,3-triazol-4-yl)methyl)-2H-tetrazol-5-yl)acetamido)-2-hydroxy-3,4-dihydro-2H-benzo[e][1,2]oxaborinine-8-carboxylic acid]	< 100 nM	< 100 nM	1000 to 10000 nM	< 100 nM	100 to 1000 nM	C (C represents an MIC of <1 μg/mL)	C (C represents an MIC of <1 μg/mL)	B (B represents an MIC between 1 and 16 μg/mL inclusive)	A (A represents an MIC>16 μg/mL)	B (B represents an MIC between 1 and 16 μg/mL inclusive)	B (B represents an MIC between 1 and 16 μg/mL inclusive)
CC(C)(CN)CNC(=O)c1cn(CC(=O)N[C@H]2Cc3cccc(C(=O)O)c3OB2O)nn1 [Example 86, (R)-3-(2-(4-((3-amino-2,2-dimethylpropyl)carbamoyl)-1H-1,2,3-triazol-1-yl)acetamido)-2-hydroxy-3,4-dihydro-2H-benzo[e][1,2]oxaborinine-8-carboxylic acid]	100 to 1000 nM	< 100 nM	< 100 nM	100 to 1000 nM	1000 to 10000 nM	C (C represents an MIC of <1 μg/mL)	C (C represents an MIC of <1 μg/mL)	C (C represents an MIC of <1 μg/mL)	C (C represents an MIC of <1 μg/mL)	C (C represents an MIC of <1 μg/mL)	B (B represents an MIC between 1 and 16 μg/mL inclusive)
O=C(Cn1cc(-c2ccsc2)nn1)N[C@H]1Cc2cccc(C(=O)O)c2OB1O [Example 29, (R)-2-hydroxy-3-(2-(4-(thiophen-3-yl)-1H-1,2,3-triazol-1-yl)acetamido)-3,4-dihydro-2H-benzo[e][1,2]oxaborinine-8-carboxylic acid]	< 100 nM	< 100 nM	100 to 1000 nM	< 100 nM	100 to 1000 nM	C (C represents an MIC of <1 μg/mL)	C (C represents an MIC of <1 μg/mL)	B (B represents an MIC between 1 and 16 μg/mL inclusive)	B (B represents an MIC between 1 and 16 μg/mL inclusive)	B (B represents an MIC between 1 and 16 μg/mL inclusive)	B (B represents an MIC between 1 and 16 μg/mL inclusive)
NCc1nnc(CC(=O)N[C@H]2Cc3cccc(C(=O)O)c3OB2O)s1 [Example 67, (R)-3-(2-(5-(aminomethyl)-1,3,4-thiadiazol-2-yl)acetamido)-2-hydroxy-3,4-dihydro-2H-benzo[e][1,2]oxaborinine-8-carboxylic acid]	< 100 nM	< 100 nM	100 to 1000 nM	< 100 nM	100 to 1000 nM	C (C represents an MIC of <1 μg/mL)	C (C represents an MIC of <1 μg/mL)	B (B represents an MIC between 1 and 16 μg/mL inclusive)	C (C represents an MIC of <1 μg/mL)	B (B represents an MIC between 1 and 16 μg/mL inclusive)	B (B represents an MIC between 1 and 16 μg/mL inclusive)
CN(C)CCn1nnnc1CC(=O)N[C@H]1Cc2cccc(C(=O)O)c2OB1O [Example 49, (R)-3-(2-(1-(2-(dimethylamino)ethyl)-1H-tetrazol-5-yl)acetamido)-2-hydroxy-3,4-dihydro-2H-benzo[e][1,2]oxaborinine-8-carboxylic acid]	< 100 nM	< 100 nM	100 to 1000 nM	< 100 nM	100 to 1000 nM	C (C represents an MIC of <1 μg/mL)	C (C represents an MIC of <1 μg/mL)	C (C represents an MIC of <1 μg/mL)	B (B represents an MIC between 1 and 16 μg/mL inclusive)	B (B represents an MIC between 1 and 16 μg/mL inclusive)	B (B represents an MIC between 1 and 16 μg/mL inclusive)
